Tested on: NK92 cells
Assay: Metabolic incorporation of azido sialic acid in NK92 cells, detected with FITC-Stau by confocal laser microscope
Format: cell-based
Settings: NK92 cells cultured with 100 μM 9N3-SA for 24-48 hours; FITC-Stau 100 μM, 37° C., 2-4 hours; compared with cells not modified
Method: NK92 cells normally cultured are distributed into a 24-well plate and then cultured in a NK92 cell medium containing 9N3-SA with a final concentration of 100 μM for 24-48 hours. The NK92 cells are washed by PBS for 3 times, and the NK92 cell medium containing 9N3-SA is then replaced by a normal NK92 medium to obtain NK92 cells modified with the azide groups. In order to verify that the NK92 cells have been modified with the azide groups, in this embodiment, Fluorescein-Stau (FITC-Stau) (as shown in FIG. 3), a ligand molecule connected to fluorescein and able to orthogonally react with the azide groups, is synthesized. The FITC-Stau is added into a medium of the NK92 cell modified with the azide groups with a final concentration of 100 μM, incubated at 37° C. for 2-4 hours, and washed with PBS for 3 times, and fluorescence on the cell surface is then observed by a confocal laser microscope.

COC(=O)[C@@]1(O)C[C@@H](O)[C@@H](NC(C)=O)C([C@H](O)[C@H](O)CN=[N+]=[N-])O1 (stereo partly shown) [9N3-SA]
fluorescence on the cell surface after FITC-Stau labeling: strong fluorescence signal

Reference: patent US20220380721A1, “METHOD FOR COUPLING ANTIBODY TO SURFACE OF CELL AND METHOD FOR APPLYING CELL COUPLED WITH THE ANTIBODY” (Xiamen Nuokangde Biological Technology Co., Ltd., priority 2019, published 2022)
